Assay results: patent publication US20220395472A1 (Dermavant Sciences GmbH, priority 2021, published 2022)

Test system: adults with plaque psoriasis
Assay: Long-term open-label extension study (PSOARING 3): Physician Global Assessment (PGA), treatment episodes, treatment success, remittive effect
Assay type: in vivo, human
Protocol: This extension study consisted of up to 40 weeks of treatment and a 4 week, safety follow up period.
At the completion of the Week 12 visit of the DB, pivotal Phase 3 study, eligibility of the subjects opting to enroll in this extension study was confirmed. Study visits during the treatment period for all subjects occurred every 4 weeks (±3 days). A phone call was performed at Week 2 (Day 15). Unscheduled visits may have occurred, as needed. Subjects who withdrew from this study before Week 40 returned to the study center for an Early Termination visit. The total duration of this extension study participation was 44 weeks. Subjects in this study were treated as follows based on their PGA score from the Week 12 visit in the DB, pivotal Phase 3 study (Study DMVT 505 3001 or Study DMVT 505 3002).
The PGA was used to assess the primary efficacy endpoint in this study. The PGA is a clinical tool for assessing the current state/severity of a subject's psoriasis at a given time point. It is a static, 5 point, morphological assessment of overall disease severity, as determined by the Investigator, using the clinical characteristics of erythema, scaling, and plaque thickness/elevation as guidelines; higher PGA scores represent more severe disease (0=clear, 1=almost clear, 2=mild, 3=moderate, and 4=severe). The BSA affected was not considered in scoring of the PGA. Variations of the PGA are frequently used in clinical studies because it is a simple assessment, similar to those used in clinical practice. The PGA was performed first, prior to the % BSA, PASI, and LTS assessments.
Time to event parameters, such as the time from treatment success to subsequent worsening (PGA≥2) or duration of treatment episode, were summarized by the Kaplan Meier product limit method using OC.

[1] = Week 16, LOCF, Vehicle (Pivotal) group
[2] = Week 16, OC, Vehicle (Pivotal) group
[3] = Week 16 LOCF, Tapinarof (Pivotal)
[4] = Week 16 LOCF, Vehicle (Pivotal)
[5] = Week 16 OC, Tapinarof (Pivotal)

For `CC(C)c1c(O)cc(/C=C/c2ccccc2)cc1O` [Tapinarof, 3,5-Dihydroxy-4-isopropyl-trans-stilbene], the “Total Duration of Treatment Success, Median” value (ITT, Vehicle (Pivotal) group) was 97.0 days, the “tachyphylaxis (decline of clinical effects over time on treatment)” value (PGA, % BSA, PASI over time) was “not observed” and the “Subjects with PGA=1” value (Week 16, LOCF, Tapinarof (Pivotal) group) was 30.4%. The “Subjects with PGA=0” value [1] was 12.7%, the “Subjects with PGA=1” value [1] was 25.8% and the “Subjects with PGA=1” value (Week 16, OC, Tapinarof (Pivotal) group) was 32.2%. For the same compound, the “Subjects with PGA=0” value [2] was 12.9%, the “Subjects with PGA=1” value [2] was 28.2% and the “PGA 0 - Clear” value (Week 16 LOCF, Overall) was 121 (16.2) n (%). The “PGA 1 - Almost Clear” value (Week 16 LOCF, Overall) was 215 (28.9) n (%), the “PGA 2 - Mild” value (Week 16 LOCF, Overall) was 279 (37.4) n (%) and the “PGA 3 - Moderate” value (Week 16 LOCF, Overall) was 119 (16.0) n (%). For the same compound, the “PGA 4 - Severe” value (Week 16 LOCF, Overall) was 11 (1.5) n (%), the “PGA Change from Baseline: Improved by 1” value (Week 16 LOCF, Overall) was 219 (29.5) n (%) and the “PGA Change from Baseline: Improved by 2” value (Week 16 LOCF, Overall) was 91 (12.3) n (%). For the same compound, the “PGA Change from Baseline: Improved by 3” value (Week 16 LOCF, Overall) was 14 (1.9) n (%), the “PGA Change from Baseline: Improved by 4” value (Week 16 LOCF, Overall) was 2 (0.3) n (%) and the “PGA Change from Baseline: No Change” value (Week 16 LOCF, Overall) was 297 (40.0) n (%). The “PGA Change from Baseline: Worsened by 1” value (Week 16 LOCF, Overall) was 86 (11.6) n (%), the “PGA Change from Baseline: Worsened by 2” value (Week 16 LOCF, Overall) was 28 (3.8) n (%) and the “PGA Change from Baseline: Worsened by 3” value (Week 16 LOCF, Overall) was 5 (0.7) n (%). The “PGA Change from Baseline: Worsened by 4” value (Week 16 LOCF, Overall) was 0 (0.0) n (%), the “PGA 1 - Almost Clear” value [3] was 150 (30.4) n (%) and the “PGA 2 - Mild” value [3] was 174 (35.3) n (%). The “PGA 3 - Moderate” value [3] was 74 (15.0) n (%), the “PGA 4 - Severe” value [3] was 6 (1.2) n (%) and the “PGA Change from Baseline: Improved by 1” value [3] was 122 (24.8) n (%). The “PGA Change from Baseline: Improved by 2” value [3] was 37 (7.5) n (%), the “PGA Change from Baseline: Improved by 3” value [3] was 1 (0.2) n (%) and the “PGA Change from Baseline: Improved by 4” value [3] was 1 (0.2) n (%). For the same compound, the “PGA Change from Baseline: No Change” value [3] was 223 (45.4) n (%), the “PGA Change from Baseline: Worsened by 1” value [3] was 77 (15.7) n (%) and the “PGA Change from Baseline: Worsened by 2” value [3] was 25 (5.1) n (%). For the same compound, the “PGA Change from Baseline: Worsened by 3” value [3] was 5 (1.0) n (%), the “PGA Change from Baseline: Worsened by 4” value [3] was 0 (0.0) n (%) and the “PGA 0 - Clear” value [4] was 32 (12.7) n (%). For the same compound, the “PGA 1 - Almost Clear” value [4] was 65 (25.8) n (%), the “PGA 3 - Moderate” value [4] was 45 (17.9) n (%) and the “PGA 4 - Severe” value [4] was 5 (2.0) n (%). For the same compound, the “PGA Change from Baseline: Improved by 1” value [4] was 97 (38.6) n (%), the “PGA Change from Baseline: Improved by 2” value [4] was 54 (21.5) n (%) and the “PGA Change from Baseline: Improved by 3” value [4] was 13 (5.2) n (%). The “PGA Change from Baseline: Improved by 4” value [4] was 1 (0.4) n (%), the “PGA Change from Baseline: No Change” value [4] was 74 (29.5) n (%) and the “PGA Change from Baseline: Worsened by 1” value [4] was 9 (3.6) n (%). The “PGA Change from Baseline: Worsened by 2” value [4] was 3 (1.2) n (%), the “PGA Change from Baseline: Worsened by 3” value [4] was 0 (0.0) n (%) and the “PGA Change from Baseline: Worsened by 4” value [4] was 0 (0.0) n (%). The “PGA 0 - Clear” value (Week 16 OC, Overall) was 107 (17.0) n (%), the “PGA 1 - Almost Clear” value (Week 16 OC, Overall) was 194 (30.9) n (%) and the “PGA 2 - Mild” value (Week 16 OC, Overall) was 236 (37.6) n (%). For the same compound, the “PGA 3 - Moderate” value (Week 16 OC, Overall) was 86 (13.7) n (%), the “PGA 4 - Severe” value (Week 16 OC, Overall) was 5 (0.8) n (%) and the “PGA Change from Baseline: Improved by 1” value (Week 16 OC, Overall) was 190 (30.3) n (%). For the same compound, the “PGA Change from Baseline: Improved by 2” value (Week 16 OC, Overall) was 77 (12.3) n (%), the “PGA Change from Baseline: Improved by 3” value (Week 16 OC, Overall) was 13 (2.1) n (%) and the “PGA Change from Baseline: Improved by 4” value (Week 16 OC, Overall) was 2 (0.3) n (%). For the same compound, the “PGA Change from Baseline: No Change” value (Week 16 OC, Overall) was 246 (39.2) n (%), the “PGA Change from Baseline: Worsened by 1” value (Week 16 OC, Overall) was 69 (11.0) n (%) and the “PGA Change from Baseline: Worsened by 2” value (Week 16 OC, Overall) was 25 (4.0) n (%). The “PGA Change from Baseline: Worsened by 3” value (Week 16 OC, Overall) was 5 (0.8) n (%), the “PGA Change from Baseline: Worsened by 4” value (Week 16 OC, Overall) was 0 (0.0) n (%) and the “PGA 0 - Clear” value [5] was 80 (19.1) n (%). For the same compound, the “PGA 1 - Almost Clear” value [5] was 135 (32.2) n (%), the “PGA 2 - Mild” value [5] was 146 (34.8) n (%) and the “PGA 3 - Moderate” value [5] was 54 (12.9) n (%). The “PGA 4 - Severe” value [5] was 4 (1.0) n (%), the “PGA Change from Baseline: Improved by 1” value [5] was 109 (26.1) n (%) and the “PGA Change from Baseline: Improved by 2” value [5] was 29 (6.9) n (%). The “PGA Change from Baseline: Improved by 3” value [5] was 1 (0.2) n (%), the “PGA Change from Baseline: Improved by 4” value [5] was 1 (0.2) n (%) and the “PGA Change from Baseline: No Change” value [5] was 187 (44.7) n (%). For the same compound, the “PGA Change from Baseline: Worsened by 2” value [5] was 23 (5.5) n (%), the “PGA Change from Baseline: Worsened by 3” value [5] was 5 (1.2) n (%) and the “PGA Change from Baseline: Worsened by 4” value [5] was 0 (0.0) n (%). For the same compound, the “PGA 0 - Clear” value (Week 16 OC, Vehicle (Pivotal)) was 27 (12.9) n (%), the “PGA 1 - Almost Clear” value (Week 16 OC, Vehicle (Pivotal)) was 59 (28.2) n (%) and the “PGA 2 - Mild” value (Week 16 OC, Vehicle (Pivotal)) was 90 (43.1) n (%). The “PGA 3 - Moderate” value (Week 16 OC, Vehicle (Pivotal)) was 32 (15.3) n (%), the “PGA 4 - Severe” value (Week 16 OC, Vehicle (Pivotal)) was 1 (0.5) n (%) and the “PGA Change from Baseline: Improved by 1” value (Week 16 OC, Vehicle (Pivotal)) was 81 (38.8) n (%). The “PGA Change from Baseline: Improved by 2” value (Week 16 OC, Vehicle (Pivotal)) was 48 (23.0) n (%) and the “PGA Change from Baseline: Improved by 3” value (Week 16 OC, Vehicle (Pivotal)) was 12 (5.7) n (%).
